In the experiment the test system is women with diminished ovarian reserve. Nature of the experiment: AMH as reflection of ovarian reserve after DHEA supplementation (Examples 9 and 12). Type of experiment: in vivo, human. On the procedure: The study is a cross-sectional analysis of 120 consecutive women with DOR in whom AMH levels were evaluated as a reflection of OR. They presented during 2007/8 to our center for initial infertility consultation. First AMH levels obtained were used for INITIAL analysis. Post DHEA initiation, exposure to the supplement ranged from 34 to 119 days (mean 73±27 days). Women with two or more consecutive AMH levels comprised patients in the longitudinal study evaluation of OR after initiation of DHEA supplementation. […]
FSH and estradiol were evaluated by standard enzyme-linked immunoabsorbent assay (ELISA; AIA-600II, Tohso, Tokyo, Japan). […] Theoretical sensitivity, or minimum detection limit, as calculated by interpolation of the mean plus two standard deviations (SD) of eight replicates of the 0 ng/ml MIS/AMH Standard, is 0.006 ng/ml. […]
Data are shown as means±standard deviation (SD) or as raw numbers and percentages. […] Demographic and biochemical data were analyzed with paired or unpaired Student's t-test. […]
The study is a cross-sectional and longitudinal analysis of 120 consecutive women with diminished ovarian reserve, in whom AMH concentrations were evaluated as a reflection of ovarian reserve. […]
FSH and oestradiol were evaluated by standard enzyme-linked immunoabsorbent assay (ELISA; AIA-600II, Tohso, Tokyo, Japan). […]

Compound `C[C@]12CC[C@H](O)CC1=CC[C@@H]1[C@@H]2CC[C@]2(C)C(=O)CC[C@@H]12` [DHEA, Dehydroepiandrosterone] yielded a clinical pregnancy rate (55 women who reached IVF, 13 conceived) of 23.64%. Further, the “AMH at highest measured peak” value (longitudinal evaluation, n=55, baseline before DHEA 0.22±0.22, DHEA 25 mg TID) was 0.35 ± 0.03 ng/mL.

The values above are taken from patent US9375436B2, “Androgen treatment in females” (priority 2004, dated 2016).
